Consider one compound from patent publication US7432392B2, “Ester derivatives and medical use thereof” (Japan Tobacco Inc., priority 2003, dated 2008).

The assay has as its target T1, Microsomal triglyceride transfer protein (MTP) from bovine liver (Bos taurus, UniProt P55156).
T1 construct: the purified MTP was used for the test; from tissue; host or cells: bovine liver
T1 sequence (P55156 12-887): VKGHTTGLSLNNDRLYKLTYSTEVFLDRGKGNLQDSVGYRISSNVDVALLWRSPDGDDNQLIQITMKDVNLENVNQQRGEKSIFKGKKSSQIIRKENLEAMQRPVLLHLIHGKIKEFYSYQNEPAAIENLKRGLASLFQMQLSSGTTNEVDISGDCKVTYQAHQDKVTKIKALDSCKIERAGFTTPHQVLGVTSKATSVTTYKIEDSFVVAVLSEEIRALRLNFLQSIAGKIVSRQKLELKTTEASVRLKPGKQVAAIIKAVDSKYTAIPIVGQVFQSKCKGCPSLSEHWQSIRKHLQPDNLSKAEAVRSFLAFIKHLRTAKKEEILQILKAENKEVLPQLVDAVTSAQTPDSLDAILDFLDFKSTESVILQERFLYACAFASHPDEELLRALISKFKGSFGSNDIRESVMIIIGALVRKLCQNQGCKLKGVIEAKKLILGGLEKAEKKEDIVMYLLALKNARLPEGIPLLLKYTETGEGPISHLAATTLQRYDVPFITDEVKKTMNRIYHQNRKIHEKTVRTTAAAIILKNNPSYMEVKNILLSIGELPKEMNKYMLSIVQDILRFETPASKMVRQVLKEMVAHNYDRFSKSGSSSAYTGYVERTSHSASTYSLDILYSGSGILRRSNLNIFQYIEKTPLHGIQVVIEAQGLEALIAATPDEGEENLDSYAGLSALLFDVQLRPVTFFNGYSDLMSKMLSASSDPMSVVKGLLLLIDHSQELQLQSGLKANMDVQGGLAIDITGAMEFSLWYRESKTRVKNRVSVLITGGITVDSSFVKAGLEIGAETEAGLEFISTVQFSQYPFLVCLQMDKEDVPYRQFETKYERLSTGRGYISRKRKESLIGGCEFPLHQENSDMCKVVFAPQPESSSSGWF
T1 sequence (P05307 21-510 partner): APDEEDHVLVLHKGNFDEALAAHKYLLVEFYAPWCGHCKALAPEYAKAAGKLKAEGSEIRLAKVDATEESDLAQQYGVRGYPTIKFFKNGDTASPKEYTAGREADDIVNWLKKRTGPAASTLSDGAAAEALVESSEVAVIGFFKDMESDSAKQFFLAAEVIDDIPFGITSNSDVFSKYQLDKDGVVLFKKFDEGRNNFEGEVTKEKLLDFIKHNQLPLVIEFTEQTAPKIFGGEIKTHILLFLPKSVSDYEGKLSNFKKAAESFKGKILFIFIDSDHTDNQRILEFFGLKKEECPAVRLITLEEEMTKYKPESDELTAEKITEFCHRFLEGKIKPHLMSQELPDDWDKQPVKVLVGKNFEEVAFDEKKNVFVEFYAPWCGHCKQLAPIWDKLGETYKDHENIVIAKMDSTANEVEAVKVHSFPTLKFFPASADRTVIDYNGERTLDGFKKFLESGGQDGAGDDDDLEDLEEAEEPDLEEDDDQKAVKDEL
Nature of the assay: Inhibition of interliposomal triglyceride (TG) transfer activity by MTP. Conditions: MTP-mediated TG transfer between donor and acceptor liposomes, 37° C., one hour. The assay is classed as biochemical. The method in brief: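 Partially purified bovine liver MTP (DEAE chromatography) was incubated 1 h at 37° C with ^14C-triolein donor SUV liposomes and unlabeled acceptor liposomes in pH 7.4 Tris buffer with 0.5% BSA. Donor was removed with DEAE cellulose and acceptor radioactivity counted. IC50 came from blank-corrected inhibition relative to DMSO.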

For the compound `CCOC(=O)C(COC(=O)Cc1ccc(NC(=O)c2ccccc2-c2ccc(C(F)(F)F)cc2)c(OC(C)=O)c1)(C(=O)OCC)c1ccccc1` [Example 1, 2-(2-{3-acetoxy-4-[(4′-trifluoromethyl-biphenyl-2-carbonyl)amino]phenyl}acetoxymethyl)-2-phenylmalonic acid diethyl ester], the IC50 was < 10 nM.

As usually defined, the IC50 is the midpoint of a concentration-inhibition curve. A lower IC50 goes with greater potency in that assay.
